Laboratory results reported in US20240218333A1, “GENERATING QUIESCENT HEPATIC STELLATE CELLS AND THEIR USE IN LIVER MODELS” (The Cleveland Clinic Foundation, priority 2022, published 2024).

How the values were obtained:
Assay type in all cases: cell-based, human
[1] = tested on: hPSC-derived and primary HSCs; assay: Cell migration (scratch) assay; conditions: 48 hrs
[2] = tested on: PNPLA3^WT liver cultures; assay: IL6 supplementation of liver cultures
Method: FIG. 15. Elevated IL6/STAT3 activity mediates the enhanced susceptibility to NAFLD phenotypes in PNPLA3^I148M liver cultures (A). Analysis of IL6 by ELISA in the supernatant of shRNA control (Ctrl) or sh-IL6 liver cultures maintained in lipotoxic condition for two weeks. Shown are mean±SD from 3 independent experiments. (B). From the experiment in (A), the transcript levels of CHI3L1 and CXCL10 in purified macrophages were analyzed by RT-qPCR. Shown are mean±SD from 3 independent experiments. (C-D). From the experiment in (A), HSCs were purified and subject to western blot analysis of STAT3 and phosphorylated STAT3 (T705) (C), and to RT-qPCR analysis of the transcript levels of inflammatory cytokine CCL5 and quiescent marker PPARG (D). For western blot, RPS11 was used as a loading control. For RT-qPCR, shown are mean±SD from 3 independent experiments. (E-H). The isogenic pair of liver cultures were maintained in lipotoxic condition for two weeks in the presence of either isotype control antibody (Ctrl) or IL6 neutralizing antibody (nIL6 Ab, 100 ng/ml). Individual cells were purified from these liver cultures and subject to RT-qPCR analysis of lipogenic-associated enzyme genes ACC1 and FASN in hepatocytes (E) and inflammatory cytokine CHI3L1 in macrophages (F), western blot analysis of HSC activation markers FN, COL1A1, and ACTA2 (G), and phosphorylated STAT3 (H) in HSCs. For western blot, RPS11 was used as a loading control. For RT-qPCR, shown are mean±SD from 3 independent experiments. (I-J). PNPLA3^WT liver cultures were treated with either healthy or lipotoxic condition for 5 days and then IL6 (100 pg/ml) was added to one set of lipotoxic treated cultures for additional 2 days. Hepatocytes were purified and subject to analysis for triacylglycerol (TAG) level (I), transcript levels of ACC1 and FASN (J) by RT-qPCR. For TAG quantification, shown are mean±SD for 4 independent experiments; for RT-qPCR, shown are mean±SD from 3 independent experiments. Statistical analysis was performed using a two-tailed unpaired t-test with Welch's corrections or One-way ANOVA/Tukey's multiple comparisons test to calculate exact p-values.
As a complementary approach, we determined if IL6 was sufficient to enhance NAFLD susceptibility in lipotoxic conditions by supplementing IL6 in PNPLA3^WT cultures to a level similar to that of PNPLA3^I148M cultures. We began after 5 days of lipotoxic exposure when disease phenotypes begin to manifest (FIG. 5B) and only maintained liver cultures for 2 more days to minimize the compounded effect of continuous IL6 secretion on our observations. […] Changes in glucose secretion were not detected, however, likely due to the brevity of IL6 supplementation.
Intracellular triacylglycerol levels were analyzed for hPSC-derived HEPs purified from different conditions using commercial kits (Promega) per the manufacturer's instructions.

[3] = tested on: hPSC-derived HSCs; assay: In vitro activation of quiescent HSCs; conditions: for activation of hPSC-HSCs (COL1A1, FN, ACTA2 western blot): TGFβ1 5 ng/ml, FBS 10%, PDGF 30 ng/ml, 72 hrs
[4] = tested on: hPSC-derived multicellular liver culture; assay: LPS treatment of multicellular liver culture
From the text: FIG. 2. Characterization of the multicellular liver culture. (A) Albumin secretion from three-cell (HEP/HSC/Mac), two-cell (HEP/HSC), and HEP monoculture, n=3. (B) Analysis of CYP3A4 and CYP2B6 transcripts in hepatocytes, n=4. (C) Analysis of LRAT transcript in HSCs from three-cell (HSC/HEP/Mac), two-cell (HSC/HEP, HSC/Mac) and HSC monoculture, n=4. (D) Staining of lipid droplets, hepatocytes (ALB), and HSCs (PCDH7). (E) Analysis of IL10 transcript in individual cell-type at three-weeks post-coculture, n=4. (F) Analysis of IL6 and TNF transcripts in macrophages, n=4. Positive control: IFNγ-treated macrophages. (G) Cytokines analysis in liver cultures treated with LPS (500 ng/ml) or control, with or without macrophages, n=4. Data are mean±S.D; Student's t-test (two-tailed) with Welch's corrections (B); One-way ANOVA with Tukey's multiple comparisons test (A, C, E-G).
FIG. 10. Characterization of multicellular liver culture. (A). Transcript levels of PPARG were analyzed in purified HSCs from the hPSC-derived liver cultures with three-cell (HSC, HEP, and Mac), two-cell (HSC and HEP, HSC and Mac) and HSC monoculture at the indicated time points post co-culture by RT-qPCR. […] Transcript levels of IL10 and macrophages marker CD163 were analyzed in purified macrophages from the hPSC-derived liver cultures with three-cell (HSC, HEP, and Mac) and two-cell (Mac and HEP, Mac and HSC) by RT-qPCR. […] HSC activation markers FN and COL1A1 were analyzed by western blot in HSCs purified from three-cell (HEP, HSC and Mac) and two-cell (HSC and HEP, HSC and Mac) liver cultures treated with LPS (100 ng/ml) for one week. […] Transcript levels of TGFB1 and IL1B in pooled cells from the liver cultures of three-cell (HSC, HEP, and Mac) and two-cell (HSC and HEP) were analyzed at one week post LPS (100 ng/ml) treatment by RT-qPCR. […] Transcript levels of IL1B and TGFB1 in purified individual cells from liver cultures treated with either vehicle control or LPS (100 ng/ml) for one week were analyzed by RT-qPCR. Fold changes were calculated by normalized to individual cells treated with vehicle control. […]

[5] = tested on: Kupffer cells and hPSC-macrophages; assay: Stimulation of macrophages, cytokine transcripts by RT-qPCR; conditions: LPS 100 ng/ml, 12 hrs
[6] = lipotoxic 5 days, then IL6 100 pg/ml for 2 days

C[C@@H](N)[C@H]1CC[C@H](C(=O)Nc2ccncc2)CC1 [Y-27632, reference compound]
motility of activated hPSC-HSCs (closure distance) ([1]; Y-27632 20 μM): markedly inhibited

IL6: interleukin 6, cytokine supplemented to liver cultures
regulation of genes that drive the GO results of I148M homozygous patients ([2]; IL6-treated liver cultures): readily regulated
activation of HSCs from PNPLA3^WT cultures ([2]; IL6 addition under lipotoxic conditions): dramatically activated
changes in glucose secretion [2, 6]: not detected
intracellular TAG levels in PNPLA3^WT hepatocytes [2, 6]: increased
lipogenesis-associated enzyme expression in PNPLA3^WT hepatocytes [2, 6]: increased

TGFβ1: transforming growth factor beta 1, pro-fibrotic stimulus
motility of hPSC-HSCs (closure distance) ([1]; activating stimulus, similar to pHSCs): enhanced motility
activation of hPSC-HSCs (COL1A1, FN, ACTA2 western blot) [3]: clearly activated

lipopolysaccharide [LPS]
cytokine induction in hPSC-HSCs (IL6, CXCL10 transcripts) ([3]; LPS 500 ng/ml, 12 hrs): induced cytokine
HSC activation markers in liver culture ([4]; LPS 100 ng/ml, one week): elevated activation markers
cytoplasmic lipid droplets in HSCs in liver culture ([4]; LPS 100 ng/ml, one week): lost cytoplasmic lipid droplets
IL1β and TGFβ1 levels produced by liver cultures ([4]; LPS treatment (500 ng/ml, FIG. 2G)): much higher levels
inflammatory cytokine transcription in macrophages (CXCL10, IL6, IL1B) [5]: transcribed inflammatory cytokines

B1: PDGF: platelet-derived growth factor, pro-fibrotic stimulus (protein, UniProt P01127 82-190, looked up)
Platelet-derived growth …: SLGSLTIAEPAMIAECKTRTEVFEISRRLIDRTNANFLVWPPCVEVQRCSGCCNNRNVQCRPTQVQLRPVQVRKIEIVRKKPIFKKATVTLEDHLACKCETVAAARPVT
modifications: homodimer PDGF-BB
notes: platelet-derived growth factor, pro-fibrotic stimulus
activation of hPSC-HSCs (COL1A1, FN, ACTA2 western blot) [3]: clearly activated
